Tested on: thrombin generation (TG)
Type: biochemical, human
Experimental: TG in PRP or reconstituted PRP was evaluated as known to those skilled in the art. Native PRP was prepared from blood collected into final 12.9 mM trisodium citrate by centrifugation at 250 g for 10 min at 25° C. The platelet count was adjusted to 180×10^3/μl by dilution with homologous PPP obtained by centrifuging PRP for 10 min at 1,500 g. CTI was added at 30-50 μg/ml depending on calibrated potency as assessed by FXIIa inhibition. Reconstituted PRP was prepared with washed platelets prepared from normal PRP by adding ⅕th volume of acid citrate-dextrose (71 mM citric acid, 85 mM trisodium citrate, and 111 mM dextrose, pH 4.5) and 5 U/ml apyrase; following centrifugation at 1,500 g for 10 minutes at 25° C., the platelet pellet was resuspended into PPP lacking FVII (George King Bio-Medical) or FIX (Haematologic Technologies) to give a final platelet count of 180·103/μl PRP was mixed with varying concentrations of rTF and/or 20 pM FIXa in 96-well microtiter plates. The reaction was started by adding 18 mM CaCl2 with 360 μM of the thrombin substrate benzyloxycarbonyl-glycyl-glycyl-L-arginine coupled to the fluorogenic group 7-amido-4-methylcoumarin (Gly-Gly-Arg-AMC; Bachem Americas, Torrance, Calif.). Fluorescence was measured continuously at 37° C. for up to 40 min in a spectrofluorometer (355/460 nm excitation/emission). The rate of fluorescence intensity increase as a function of time (dF/dt) was calculated with Turbo Delphi 2006 (Borland Software Corporation, Austin, Tex.) and converted to thrombin-equivalent concentration (nM) using a calibration curve. The endogenous thrombin potential (ETP) of samples, i.e. total generated thrombin activity, was determined from the area under the TG curve. When specified, TG was measured with a discontinuous 2-stage assay with a detection limit of 5 pM. For this, TG was induced by 0.15 pM rTF and 18 mM CaCl2 in reconstituted FVII-deficient PRP including 30 μg/ml CTI with 400 pM WT FVIIa or iFVIIa without or with 20 pM FIXa. After incubation for up to 11 min at 37° C., reactions were terminated by adding 20 mM EDTA and generated thrombin was measured using the highly sensitive thrombin substrate H-D-CHA-Ala-Arg-AMC.2AcOH (Pefafluor TH, Pentapharm, Basel, Switzerland) at 50 μM concentration. In other experiments, TG was induced by TFiFVIIa-FXa-TFPI or TF-iFVIIa-FXa-NAPc2. These stable complexes were pre-formed by incubating 5 nM FXa, 10 nM TF, 10 nM iFVIIa and 40 nM TFPI or NAPc2 in the presence of 2.5 mM CaCl2 for 2 min at 37° C. Complexes were added into FVII-deficient PRP, followed by incubation for 8 min at 37° C.
PRP was prepared from blood collected into trisodium citrate (final concentration 0.0129 M) by centrifugation for at 250 g for 10 min at 25° C.; the platelet count was adjusted at 180.103 per μl by diluting with homologous platelet-poor plasma (PPP) obtained by centrifuging PRP for an additional 10 min at 1,500 g. When indicated, CTI was added at 30 to 50 μg/ml depending on calibrated potency measured by FXIIa inhibition. Reconstituted PRP was prepared by adding normal washed platelets into PPP (without or with CTI) lacking FVII, FVIII (both from George King Bio-Medical, Overland Park, Kans.) or FIX (Haematologic Technologies). […] generation in PRP was measured as described by Hemker et al. 53 μl of PRP was mixed in 96-well microtiter plates with 15 μl of a solution containing rTF and/or one of the intrinsic coagulation pathway proteases—FXIIa, FXIa or FIXa—to achieve the indicated final concentrations. Antibodies or inhibitors were also added at this point at the concentration indicated for each specific case. The reaction was started by adding between 15 and 20 μl of 100 mM CaCl2 and 2 mM fluorogenic substrate, benzyloxycarbonyl-glycyl-glycyl-L-arginine-7-amido-4-methylcoumarin (Gly-Gly-Arg-AMC; Bachem Americas, Torrance, Calif.).

SMILES: O=C(NC[C@H]1CN(c2ccc(N3CCOCC3=O)cc2)C(=O)O1)c1ccc(Cl)s1 [Rivaroxaban]
- inhibition of TG in the presence of MoAb 12C7 (low rivaroxaban concentrations): more pronounced inhibition
- difference in dose response between rivaroxaban and apixaban (recalcified PRP containing CTI): ~3 fold
- effect on TF-induced thrombin generation (recalcified PRP containing CTI): inhibited
